Assay: Hemodialysis treatments with trisodium citrate infusion into the arterial line and Citrasate dialysate; measured ionized calcium
Type: in vivo, maintenance HD patients
Conditions: 15 min into the treatment, mean±SD
Protocol: For one treatment only, Citrasate with 2.5 mEq/L Ca was used. No post-dialyzer Ca infusion was performed. Total Ca, Ca^++ and total Ci were measured systemically, pre- and post-dialyzer at the following time points: before HD (systemically only), at several time points throughout the treatment, and at the end of HD. […] Total protein and albumin were measured before dialysis. The most recent alkaline phosphatase (AP) and total parathyroid hormone (PTH) (Scantibodies assay, Scantibodies Laboratory, Inc., Santee, Calif.) were recorded. […] All subjects used Optiflux F180NR dialyzers (Fresenius Medical Care North America, Waltham, Mass.).
Measured and predicted systemic Ca^++ were compared pre-HD and at 15 min into the treatment. For the latter, pre-HD predicted were adjusted to measured values. Pre- and post-dialyzer comparisons between measured and estimated Ca^++ were performed at 15 min into the treatment. Deviations between predicted and measured systemic Ca^++ over the entire treatment were compared for tertiles of AP and tPTH.
Results are presented below as mean±standard deviation (SD) unless otherwise noted. Differences between predicted and measured values were calculated as predicted minus measured and were tested for significant deviation from zero by means of two-tailed one-sample t test. Bland-Altman plots were generated and the underlying data analyzed for systematic bias by means of linear regression. Statistical significance was accepted for an alpha level of <0.05.

[1] = Citrasate dialysate, no post-dialyzer Ca infusion

O=C([O-])CC(O)(CC(=O)[O-])C(=O)[O-].[Na+].[Na+].[Na+] [Trisodium citrate]
Measured post-dialyzer Ca [1]: 0.7 ± 0.05 mmol/L | Measured systemic Ca++ [1]: 1.01 ± 0.05 mmol/L | Measured pre-dialyzer Ca (after citrate infusion): 0.33 ± 0.06 mmol/L

— US10525186B2 (Fresenius Medical Care Holdings, Inc., priority 2009, dated 2020)
